The OPERA property sets (Mansouri et al. 2018)

Row | Compound | logP
1 | Nc1nc(-c2ccnc(NCCCc3ccccc3)c2)n[nH]1 | 3.05
2 | CNc1cc(-c2n[nH]c(N)n2)ccn1 | 0.69
3 | CCNc1cc(-c2nc(N)n[nH]2)ccn1 | 1.13
4 | Nc1n[nH]c(-c2ccnc(NCCO)c2)n1 | 0.24
5 | C=CCNc1cc(-c2nc[nH]n2)ccn1 | 1.26
6 | CCCCNc1cc(-c2n[nH]c(N)n2)ccn1 | 2.15
7 | Cc1ccc(CNc2cc(-c3n[nH]c(N)n3)ccn2)cc1 | 2.69
8 | CCCCCCNc1cc(-c2n[nH]c(N)n2)ccn1 | 3.3
9 | Nc1nc(-c2ccnc(NCCc3ccccc3)c2)n[nH]1 | 2.63

The remaining lines, values ahead:

Row | logP | Compound
10 | 0.11 | Nc1cc(-c2nnc(N)[nH]2)ccn1
11 | 1.61 | CCCNc1cc(-c2nnc(N)[nH]2)ccn1
12 | 4.07 | CCCCCCCCCCNc1cc(-c2nnc(N)[nH]2)ccn1
13 | 0.94 | COCCNc1cc(-c2nnc(N)[nH]2)ccn1
